Experimental data as given in PMC8359378 (British Journal of Clinical Pharmacology, 2021).

Columns and labels:
[1] = tested on: activated partial thromboplastin time (aPTT); test: activated partial thromboplastin time; type: in vivo, human
[2] = tested on: monkey arteriovenous shunt model; settings: preclinical; cited from earlier work
[3] = tested on: rabbit abdominal incision bleeding model; settings: in combination with clopidogrel; cited from earlier work
[4] = Part A, single dose 5 mg, fasted
[5] = Part A, single dose 20 mg, fasted
[6] = Part A, single dose 80 mg, fasted
[7] = Part A, single dose 150 mg, fasted

For `Nc1ccc(-c2nc([C@H]3CCc4cc(-c5cc(Cl)ccc5-n5cnnn5)cc(=O)n43)c(F)[nH]2)c(F)n1` [ONO‐7684], which “time of maximal prolongation of aPTT post‐dose” value ([1]; Part A, 80 mg fed group) is on record?
Its value is “approximately 8 hours”.

And the “aPTT Day 1 24 hours RTB, mean ± SD” value ([1]; Part A, single dose 1 mg, fasted)?
The value was 1.00 ± 0.034.

And the “aPTT Day 1 24 hours RTB, mean ± SD” value [1, 4]?
The value was 1.10 ± 0.061.

What about the “aPTT Maximum on treatment RTB, mean ± SD” value [1, 4] of the same molecule?
Its value is 1.18 ± 0.054.

And the “aPTT Day 1 24 hours RTB, mean ± SD” value [1, 5]?
Its value is 1.15 ± 0.119.

And the “aPTT Maximum on treatment RTB, mean ± SD” value [1, 5]?
Its value is 1.40 ± 0.016.

What about the “aPTT Day 1 24 hours RTB, mean ± SD” value [1, 6] of the same molecule?
The value was 1.54 ± 0.111.

And the “aPTT Maximum on treatment RTB, mean ± SD” value [1, 6]?
The value was 1.83 ± 0.172.

What about the “aPTT Day 1 24 hours RTB, mean ± SD” value ([1]; Part A, single dose 80 mg, fed) of the same molecule?
Its value is 1.61 ± 0.128.

And the “aPTT Maximum on treatment RTB, mean ± SD” value ([1]; Part A, single dose 80 mg, fed)?
Its value is 1.74 ± 0.163.

And the “aPTT Day 1 24 hours RTB, mean ± SD” value [1, 7]?
Its value is 1.63 ± 0.031.

What about the “aPTT Maximum on treatment RTB, mean ± SD” value [1, 7] of the same molecule?
The value was 1.97 ± 0.078.

And the “aPTT Day 1 24 hours RTB, mean ± SD” value ([1]; Part A, single dose 300 mg, fasted)?
The value was 1.99 ± 0.139.

And the “time of maximal prolongation of aPTT post‐dose” value ([1]; Part A, single dose of 20–300 mg)?
Its value is “approximately 4 hours”.

What about the “aPTT Maximum on treatment RTB, mean ± SD” value ([1]; Part B, 80 mg QD for 14 days, fed) of the same molecule?
Its value is 2.07 ± 0.152.

What about the “aPTT Day 1 24 hours RTB, mean ± SD” value ([1]; Part B, 80 mg QD, fed) of the same molecule?
Its value is 1.53 ± 0.119.

What about the “aPTT Day 14 24 hours RTB, mean ± SD” value ([1]; Part B, 80 mg QD, fed) of the same molecule?
Its value is 1.87 ± 0.163.

What about the “aPTT Maximum on treatment RTB, mean ± SD” value ([1]; Part B, 150 mg QD for 14 days, fed) of the same molecule?
The value was 2.35 ± 0.275.

What about the “aPTT Day 1 24 hours RTB, mean ± SD” value ([1]; Part B, 150 mg QD, fed) of the same molecule?
The value was 1.78 ± 0.174.

What about the “aPTT Day 14 24 hours RTB, mean ± SD” value ([1]; Part B, 150 mg QD, fed) of the same molecule?
Its value is 2.06 ± 0.261.

And the “aPTT Day 1 24 hours RTB, mean ± SD” value ([1]; Part B, 250 mg QD, fed)?
The value was 2.06 ± 0.091.

What about the “aPTT Day 14 24 hours RTB, mean ± SD” value ([1]; Part B, 250 mg QD, fed) of the same molecule?
The value was 2.53 ± 0.146.

And the “time of maximal aPTT prolongation post‐dose” value ([1]; Part B, first dose of 80, 150 and 250 mg)?
The value was “approximately 4 hours”.

What about the thrombus formation [2] of the same molecule?
Its thrombus formation is “significantly inhibited thrombus formation”.

What about the “bleeding risk compared with rivaroxaban” value [3] of the same molecule?
Its value is “lower bleeding risk than rivaroxaban”.
